Data reported in patent publication US10590094B2, “Aminothiazole derivatives useful as antiviral agents” (Innovative Molecules GmbH, priority 2016, dated 2020).
Values after ≈ are worked out from the molar mass of the structure shown. Values joined by “and” are separate entries in the source; they are usually repeats but may differ in a detail not shown here. Identical values can stand only once.

What was measured:
HSV-2 = test: activity selectivity assay, HSV-2 infected Vero cells; assay type: cell-based, Herpes simplex virus; conditions: Human alphaherpesvirus 2
Procedure: (§1) HSV (HSV-1 Walki, HSV-1F, HSV-2 MS, HSV clinical isolates and HSV resistant strains) was cultivated on Vero cells (ATCC CCL-81) under the following conditions: The cells were grown in M199 medium (5% foetal calf serum, 2 mM glutamine, 100 IU/mL penicillin, 100 μg/mL streptomycin) in cell culture bottles at 37° C. and 5% CO2. The cells were splitted twice per week (1:4). For the infection, the medium was removed, the cells were washed with Hank's solution, detached using 0.05% trypsin, 0.02% EDTA and incubacted at a density of 4×10^5 cells/mL under the above-mentioned conditions for 24 h. The medium was removed and the virus solution was added at an m.o.i of <0.05 in a volume of 2 mL per 175 cm^2 surface. The infected cells were incubated at 37° C., 5% CO2 for 1 h and then the medium was made up to a volume of 50 mL per 175 cm^2 bottle. […] The virus was released by freezing (−80° C.) and thawing (37° C.) the infected cultures twice. Cell debris was removed by centrifugation (300 g, 10 min, 4° C.) and the supernatant was frozen in aliquots at −80° C.
(§2) The antiviral action was determined using a patented (DE10235967 and WO2004/015416) and subsequently published activity selectivity assay (G. Kleymann et al. J. Biomol. Screen. 2004; 9:578) in 96- or 384-well mictrotitre plates using various cell lines of neuronal, lymphoid and epithelial origin, such as, for example, Vero (african green monkey kidney cells), MEF (murine embryonal fibroblasts), HELF (human embryonal fibroblasts), NT2 (human neuronal cell line) or Jurkat (human lymphoid T-cell line). The relevant experimental details of the above mentioned patent and publication to evaluate the antiviral activity of the invention (disclosed compounds) are described below.
(§3) The effect of the substances on the spreading of the cytopathogenic effect was determined in comparison to the reference compound acyclovir-sodium (Zovirax™), a clinically approved anti-herpes chemotherapeutic.
(§4) The compounds (50 mM stock solution dissolved in DMSO) are examined on microtitre plates (for example 96-well flat bottom cell culture plates) at a final concentration of 250 to 0.5 μM or, in case of potent antiviral compounds, 250 to 0.5 nM in 2 to 4 replications (4 to 2 substances per plate). Also examined are toxic and cytostatic effects or precipitation of the compounds. After an appropriate dilution of the compounds (1:2) on the microtitre plate in the appropriate medium (100 μL), a suspension of cells (50 μL, 1×10^4 cells per well), such as, for example of Vero cells in M199 (medium 199 with 5% foetal calf serum, 2 mM glutamine and optionally 100 IU/ml penicillin and 100 μg/ml streptomycin) or of MEF or HELF cells in EMEM (Eagle's Minimum Essential Medium with 10% foetal calf serum, 2 mM glutamine and optionally 100 IU/mL penicillin and 100 μg/mL streptomycin), or of NT2- and Jurkat cells in DMEM (([…] glucose plus pyridoxin) with 10% foetal calf serum, 2 mM glutamine, 1 mM sodium pyruvate, non-essential amino acids and optionally 100 IU/mL penicillin and 100 μg/mL streptomycin) is added to each well and the cells in the relevant wells are infected with the appropriate amount of virus (HSV-1 or HSV-2 having an m.o.i (multiplicity of infection) of 0.0025 for Vero, HELF and MEF cells and an m.o.i. of 0.1 for NT2 and Jurkat cells). The plates are then incubated at 37° C. in a cell CO2 incubator (5% CO2) for several days. After this time, the cell lawn of, for example, Vero cells in the substance-free virus controls, starting from 25 infections centres, is completely destroyed or lysed by the cytopathogenic effect (CPE) of the Herpes viruses (100% CPE). The plates are initially evaluated visually using a microscope and then analysed using a fluorescent dye. To this end, the cell supernatant of all wells of the MTP is aspirated and the wells are filled with 250 μL PBS (phosphate buffered saline) wash solution. […]

HSV-1 [1] = test: activity selectivity assay, HSV-1 infected Vero cells (cytopathogenic effect, fluorescein diacetate readout); assay type: cell-based, Herpes simplex virus; conditions: Human alphaherpesvirus 1
Procedure: as §1, §2, §3, §4

HSV-1 ACV resistant = test: activity selectivity assay, ACV resistant HSV-1; assay type: cell-based, Herpes simplex virus; conditions: Human alphaherpesvirus 1, read-out: IC50 (HSV-1 ACV resistant)
Procedure: as §1, §2, §3, §4

[2] = pharmacokinetics in male mice strain C57BL/6J; assay type: in vivo; conditions: mouse
Procedure: Pharmcokinetic parameters were determined for Example 3 in male mice strain C57BL/6J at an intraveneous (i.v.) dose of 5 mg/kg (5% DMSO in heterologous plasma, 2.5 ml/kg) and an oral dose (p.o) of 10 mg/kg (DMSO/0.5% HPMC (5:95), 5 ml/kg). […] Significant concentrations in the brain of treated mice (2-3 μM, 1000 ng compound/g brain) were detected 6 h post administration at an oral dose of 10 mg/kg.

HSV-1 [3] = test: HSV-1 intranasal infection mouse model, survival; assay type: in vivo; conditions: Human alphaherpesvirus 1, inhaled or nasal, 120 h; female BALB/ABom mice, intranasal HSV-1, treatment for 5 days; read-out: ED50 (dose at which 50% of the infected animals survive)
Procedure: Animal experiments were performed according to patent WO2001/047904 or subsequent publications (U. A. K. Betz et al. Antimicrob. Agents Chemother. 2002; 46:1766 or G. Kleymann et al. Nat. Med. 2002; 8:392). The relevant experimental details of the above mentioned patent and publication to evaluate the antiviral activity of the invention (disclosed compounds) in-vivo (animal models) are described below.
6 week-old female mice, BALB/ABom strain were obtained from a commercial breeder.
The animals were anaesthetized with Et2O in a sealed glass vessel. 50 μL of a dilution of the virus stock (infection dose 5×10^4 PFU (Plaque forming units)) were introduced into the nose of the anaesthetized animals using a pipette. In 90 to 100% of the animals, this infection dose causes death by generalized infection with prominent respiratory and central-nervous symptoms on average after 5 to 8 days.
6 hours after infection animals were treated with doses of 0.1-150 mg/kg of body mass, 3 times per day at 7 am, 2 pm and 7 pm (tid) or 2 times per day at 7 am and 7 pm (bid) or once daily at 1 pm (od) for a period of 5 days. […] After the last administration, the animals were monitored further and the time of death was determined.

Human Carboanhydrase II = Human Carboanhydrase II (Homo sapiens, UniProt P00918); test: carbonic anhydrase activity assay (pH indicator method); assay type: biochemical
Procedure: Carbonic anhydrase II activity and its respective inhibition was performed according to R. Iyer et al. J. Biomol. Screen.
A protocol for determination of the carbonic anhydrase enymatic activity at rt using the pH indicator method is described below:
1 μL inhibitor (50 mM stock solution in DMSO) is diluted to a final test concentration ranging from 100 μM down to 1 nM (or 1 μL water in controls) and incubated for 2 min with 0.5 to 2 EU human […] (180 U/mg) in 400 μL water and 200 μL phenol red indicator solution (20 mg/L). An enzymactic unit (EU) is defined as an amount which doubles the non catalyzed rate. […] The time to colour change (pH 7.2) is determined with a microchronometer or stop watch.
The percentage of inhibition is calculated as described below: (time to color change without enzyme time to color change with enzyme and inhibitor)/(time to color change without enzyme time to color change with enzyme).

[4] = aqueous solubility (PBS, pH 7.4), shake flask; assay type: physicochemical
Procedure: The aqueous solubility (PBS, pH 7.4) was determined at Eurofins, Cerep, Panlabs according to C. A. Lipinski et al. Adv. Drug Del. Rev. 1997, 46:3. Measurement of the aqueous solubility was performed according to Lipinski, C. A. et al. (1997), Adv. Drug Del. Rev., 46: 3-26. The relevant information from the literature is described below. […] In addition, chromatographic purity (%) was defined as the peak area of the principal peak relative to the total integrated peak area in the HPLC chromatogram of the calibration standard.

SMILES | IC50 (HSV-2) | IC50 (HSV-1 [1]) | IC50 (HSV-1 ACV resistant) | also measured
Nc1nc2c(ncn2COCCO)c(=O)[nH]1 [Acyclovir, reference compound] | 0.5 to 3 µM | 0.5 to 3 µM | > 25 µM | 
Cc1nc(N(C)C(=O)Cc2ccc(-c3cc(F)ccc3F)cc2)sc1S(=N)(N)=O (stereo not shown) [Example 3, 2-(2′,5′-Difluoro-[1,1′-biphenyl]-4-yl)-N-methyl-N-(4-methyl-5-sulfamimidoylthiazol-2-yl)acetamide] | 0.005 to 0.05 µM | 0.005 to 0.05 µM | 0.005 to 0.05 µM | concentration at 6 h ([2]; male, C57BL/6J, brain, mice, 6 h post administration, oral dose of 10 mg/kg): 2 µM to 3 µM and 1000 ng/g; bioavailability ([2]; plasma, oral, male C57BL/6J mice, 10 mg/kg p.o. vs 5 mg/kg i.v.): 94%; Tmax ([2]; plasma, po, male C57BL/6J mice, 10 mg/kg p.o.): 1 h; Cmax ([2]; plasma, po, male C57BL/6J mice, 10 mg/kg p.o., read-out: maximal plasma concentration (cmax)): 13.9 µM; half-life ([2]; plasma, male C57BL/6J mice, oral dose of 10 mg/kg, read-out: terminal half life (converted)): ~3.5 h; ED50 (HSV-1 [3]): < 10 mg/kg; IC50 (Human Carboanhydrase II): > 5 µM; carboanhydrase inhibition (IC50) (Human Carboanhydrase II; text statement before Table 2): no or reduced carbonic anhydrase inhibition; solubility at 24 h ([4]; PBS buffer, aqueous buffer, kinetic from dmso stock, pH 7.4, shake flask, 24 h incubation, RT, read-out: Solubility [μM] (PBS, pH 7.4, 200 μM Test concentration)): 16.2 µM (≈ 7.07 µg/mL); solubility in comparison to Example 87 (WO2001/047904) ([4]; pH 7.4): significantly increased solubility (at least one order of magnitude)
Cc1nc(N(C)C(=O)Cc2ccc(-c3ccccn3)cc2)sc1S(=N)(N)=O (stereo not shown) [Example 3-1, N-methyl-N-(4-methyl-5-sulfamimdoylthiazol-2-yl)-2-(4-(pyridin-2-yl)phenyl)acetamide] | 0.005 to 0.05 µM | 0.005 to 0.05 µM | 0.005 to 0.05 µM | 
Cc1nc(N(C)C(=O)Cc2ccc(-c3cc(F)ccc3F)cc2)sc1[S+](C)[O-] (stereo not shown) [Example 4, 2-(2′,5′-Difluoro-[1,1′-biphenyl]-4-yl)-N-methyl-N-(4-methyl-5-(methylsulfinyl)thiazol-2-yl)acetamide] | 0.1 to 0.5 µM | 0.1 to 0.5 µM | 0.1 to 0.5 µM | 
Cc1nc(N(C)C(=O)Cc2ccc(-c3cc(F)ccc3F)cc2)sc1S(C)(=N)=O (stereo not shown) [Example 7, 2-(2′,5′-Difluoro-[1,1′-biphenyl]-4-yl)-N-methyl-N-(4-methyl-5-(S-methylsulfonimidoyl)thiazol-2-yl)acetamide] | 0.025 to 0.1 µM | 0.025 to 0.1 µM | 0.025 to 0.1 µM | 
Cc1nc(N(C)C(=O)Cc2ccc(-c3cc(F)ccc3F)cc2)sc1P(=O)(O)O [Example 9, (2-(2-(2′,5′-Difluoro-[1,1′-biphenyl]-4-yl)-N-methylacetamido)-4-methylthiazol-5-yl)phosphonic acid] | 25 to 100 µM | 25 to 100 µM | 25 to 100 µM | 
Cc1nc(N(C)C(=O)Cc2ccc(-c3cc(F)ccc3F)cc2)sc1S(=O)(=O)NC#N [Example 12, N-(5-(N-Cyanosulfamoyl)-4-methylthiazol-2-yl)-2-(2′,5′-difluoro-[1,1-biphenyl]-4-yl)-N-methylacetamide] | 0.1 to 1 µM | 0.1 to 1 µM | 0.1 to 1 µM | 
Cc1nc(N(C)C(=O)Cc2ccc(-c3cc(F)ccc3F)cc2)sc1/S(C)=N\C#N (stereo not shown) [Example 13, N-[5-(N-Cyano-S-methyl-sulfinimidoyl)-4-methyl-thiazol-2-yl]-2-[4-(2,5-difluorophenyl)phenyl]-N-methyl-acetamide] | 0.3 to 3 µM | 0.3 to 3 µM | 0.3 to 3 µM | 
Cc1nc(N(C)C(=O)Cc2ccc(-c3cc(F)ccc3F)cc2)sc1S(C)(=O)=NC#N (stereo not shown) [Example 14, N-[5-(N-Cyano-S-methyl-sulfonimidoyl)-4-methyl-thiazol-2-yl]-2-[4-(2,5-difluorophenyl)phenyl]-N-methyl-acetamide] | 1 to 5 µM | 1 to 5 µM | 1 to 5 µM | 
CSc1sc(N(C)C(=O)Cc2ccc(-c3cc(F)ccc3F)cc2)nc1C [Example P4b, 2-(2′,5′-Difluoro-[1,1′-biphenyl]-4-yl)-N-methyl-N-(4-methyl-5-(methylthio)thiazol-2-yl)acetamide] | 2 to 6 µM | 2 to 6 µM | 2 to 6 µM | 
